Laboratory results reported in patent US8093028B2, “Engineered glycosyltransferases with expanded substrate specificity” (Wisconsin Alumni Research Foundation, priority 2007, dated 2012).

Target: T1, WT OleD (Streptomyces antibioticus, UniProt Q53685, P55A/R82V/R83E/T84P)
T1 construct: made in house; host or cells: E. coli BL21(DE3)pLysS, plasmid pET28/OleD
Assay: Fluorescence-based glycosyltransferase assay in E. coli crude cell extracts
Assay type: biochemical
Procedure: Individual colonies were used to inoculate wells of a 96-deep well microtitre plate wherein each well contained 1 ml of LB medium supplemented with 50 μg/ml kanamycin. Culture plates were tightly sealed with AeraSeal™ breathable film (Research Products International Corp.). After cell growth at 37° C. for 18 h with shaking at 350 rpm, 100 μl of each culture was transferred to a fresh deep-well plate containing 1 ml of LB medium supplemented with 50 μg/ml kanamycin. The original plate was sealed and stored at 4° C., or a glycerol copy made by mixing 100 μl of each culture with 100 µl 50% (v/v) glycerol and storing at −80° C. The freshly inoculated plate was incubated at 37° C. for 2-3 h with shaking at 350 rpm. […]
For the assay, cleared supernatant was mixed with an equal volume (501) of 50 mM Tris-HCl (pH 8.0) containing 10 mM MgCl2, 0.2 mM 4-Me-umb (FIG. 1: 4), and 1.0 mM UPDG (FIG. 3: 2) using a Biomek FX Liquid Handling Workstation (Beckman Coulter, Fullerton, Calif.). Upon mixing, the fluorescence at excitation 350 nm and emission 460 nm was measured using a FLUOstar Optima plate reader (BMG Labtechnologies, Durham, N.C.) and the reactions incubated for 4 h at 30° C., at which time the fluorescence measurement was repeated. Activity of the clones was expressed as the difference in fluorescence intensity between 0 h and 3 h.

T1 sequence (Q53685 other isoform, or with tags, fused parts or gaps P55A/R82V/R83E/T84P): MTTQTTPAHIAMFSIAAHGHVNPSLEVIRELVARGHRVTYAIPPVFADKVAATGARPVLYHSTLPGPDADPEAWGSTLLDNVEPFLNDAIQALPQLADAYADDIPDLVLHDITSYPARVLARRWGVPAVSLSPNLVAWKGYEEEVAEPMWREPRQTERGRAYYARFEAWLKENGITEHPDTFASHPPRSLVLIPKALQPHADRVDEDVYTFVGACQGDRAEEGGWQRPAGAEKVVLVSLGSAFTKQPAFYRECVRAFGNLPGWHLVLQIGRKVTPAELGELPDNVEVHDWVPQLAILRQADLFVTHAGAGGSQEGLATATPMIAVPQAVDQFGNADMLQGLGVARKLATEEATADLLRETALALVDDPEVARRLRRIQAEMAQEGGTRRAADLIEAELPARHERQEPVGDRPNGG

Cc1cc(=O)oc2cc(O)ccc12 [4-Me-umb (4), 7-hydroxy-4-methylcoumarin]
activity in E. coli pET28/OleD crude cell extracts versus extracts not over-expressing OleD: ~2 fold
